Measured values as given in patent publication US9586963B2 (GENFIT, priority 2011, dated 2017).

Legend:
Rev-Erb alpha = biological target: T1, Rev-Erb alpha (Homo sapiens, UniProt P20393); assay: M2H (mammalian two-hybrid) cellular activation assay of Rev-Erb alpha; assay type: cell-based; conditions: M2H assay, HEK293 cells; for EC50: Gal4-Rev-Erb alpha / VP16-NCoR, luciferase reporter
T1 sequence (P20393 284-614 limits assumed): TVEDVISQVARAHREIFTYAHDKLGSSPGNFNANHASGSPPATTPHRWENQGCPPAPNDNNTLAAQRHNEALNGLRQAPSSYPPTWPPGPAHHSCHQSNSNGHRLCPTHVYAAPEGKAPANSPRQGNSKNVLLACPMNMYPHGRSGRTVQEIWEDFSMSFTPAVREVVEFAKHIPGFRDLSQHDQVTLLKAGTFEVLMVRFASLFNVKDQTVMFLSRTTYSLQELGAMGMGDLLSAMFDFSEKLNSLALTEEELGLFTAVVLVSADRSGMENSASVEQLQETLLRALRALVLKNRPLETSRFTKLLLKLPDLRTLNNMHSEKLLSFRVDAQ
Method in brief: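 Six-point dose-response, 18 h, 37 °C, serum-free, in HEK293 cells carrying a Gal4-RE luciferase reporter with Gal4-Rev-Erb alpha or beta plus VP16-NCoR (corepressor interaction readout). EC50 and TOP activation (%) derived from luminescence across four experiments.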

Row | Compound | EC50 (Rev-Erb alpha) | melting point | Emax (Rev-Erb alpha; relative to DMSO, at the tested dose, read-out: TOP activation)
1 | Oc1ccc(Oc2ccc3nnc(Cl)n3n2)c(-c2ccccc2)c1 [Cpd.4-32, 6-(5-hydroxy-biphenyl-2-yloxy)-3-chloro-[1,2,4]triazolo[4,3-b]pyridazine] | 1000 to 6000 nM | 267.7 °C | –
2 | Clc1ccc(Oc2ccc3nnc(Cl)n3n2)c(-c2ccccc2)c1 [Cpd.4-35, 6-(5-chloro-biphenyl-2-yloxy)-3-chloro-[1,2,4]triazolo[4,3-b]pyridazine] | 100 to 1000 nM | 166.2 °C | –
3 | FC(F)(F)c1ccc(-c2ccccc2)c(Oc2ccc3nnc(C(F)(F)F)n3n2)c1 [Cpd.4-38, 6-(4-trifluoromethyl-biphenyl-2-yloxy)-3-(trifluoromethyl)-[1,2,4]triazolo[4,3-b]pyridazine] | 100 to 1000 nM | 150 °C | –
4 | CN(C)Cc1ccc(-c2ccccc2)c(Oc2ccc3nnc(Cl)n3n2)c1 [Cpd.4-41, 3-chloro-6-(4-N,N-dimethylaminomethyl-biphenyl-2-yloxy)-[1,2,4]triazolo[4,3-b]pyridazine] | 1000 to 6000 nM | 141 to 144 °C | –
5 | CCCCNc1ccc(-c2ccccc2)c(Oc2ccc3nnc(Cl)n3n2)c1 [Cpd.4-50, 3-chloro-6-(4-N-butylamino-biphenyl-2-yloxy)-[1,2,4]triazolo[4,3-b]pyridazine] | 100 to 1000 nM | 132 to 135 °C | –
6 | CC(C)CNc1ccc(-c2ccccc2)c(Oc2ccc3nnc(Cl)n3n2)c1 [Cpd.4-51, 3-chloro-6-(4-N-2-methylpropylamino-biphenyl-2-yloxy)-[1,2,4]triazolo[4,3-b]pyridazine] | 100 to 1000 nM | 124 to 128 °C | –
7 | CCCN(CCC)c1ccc(Oc2ccc3nnc(Cl)n3n2)c(-c2ccccc2)c1 [Cpd.4-53, 3-chloro-6-(5-dipropylamino-biphenyl-2-yloxy)-[1,2,4]triazolo[4,3-b]pyridazine] | 100 to 1000 nM | 106 to 109 °C | –
8 | CCCNc1ccc(Oc2ccc3nnc(Cl)n3n2)c(-c2ccccc2)c1 [Cpd.4-56, 3-chloro-6-(5-propylamino-biphenyl-2-yloxy)-[1,2,4]triazolo[4,3-b]pyridazine] | 100 to 1000 nM | 55 to 58 °C | –
9 | CN(Cc1ccccc1)Cc1ccc(-c2ccccc2)c(Oc2ccc3nnc(Cl)n3n2)c1 [Cpd.4-60, 3-chloro-6-(4-N-methyl-N-benzylaminomethyl-biphenyl-2-yloxy)-[1,2,4]triazolo[4,3-b]pyridazine] | 100 to 1000 nM | 119 to 122 °C | –
10 | Clc1nnc2ccc(Oc3cc(CN4CCOCC4)ccc3-c3ccccc3)nn12 [Cpd.4-64, 3-chloro-6-(4-morpholinomethyl-biphenyl-2-yloxy)-[1,2,4]triazolo[4,3-b]pyridazine] | 1000 to 6000 nM | 162 to 163 °C | –
11 | FC(F)(F)Oc1ccc(-c2ccccc2)c(Oc2ccc3nnc(Cl)n3n2)c1 [Cpd.4-68, 3-chloro-6-(4-trifluoromethyloxy-biphenyl-2-yloxy)-[1,2,4]triazolo[4,3-b]pyridazine] | 100 to 1000 nM | 225.4 to 228.2 °C | –
12 | NC(=O)c1ccc(Oc2ccc3nnc(Cl)n3n2)c(-c2ccccc2)c1 [Cpd.4-70, 3-chloro-6-(5-aminocarbonyl-biphenyl-2-yloxy)-[1,2,4]triazolo[4,3-b]pyridazine] | > 6000 nM | 196.5 to 198.4 °C | > 130%
13 | Oc1cccc(-c2cc(F)ccc2Oc2ccc3nnc(Cl)n3n2)c1 [Cpd.4-77, 3-chloro-6-(5-fluoro-3′-hydroxy-biphenyl-2-yloxy)-[1,2,4]triazolo[4,3-b]pyridazine] | 1000 to 6000 nM | 241.3 to 244.5 °C | –
14 | FC(F)(F)c1ccc(-c2ccc(Cl)nc2)c(Oc2ccc3nnc(Cl)n3n2)c1 [Cpd.4-101, 3-chloro-6-(2-(6-chloropyridin-3-yl)-5-(trifluoromethyl)phenoxy)-[1,2,4]triazolo[4,3-b]pyridazine] | 100 to 1000 nM | 198 to 200 °C | –
15 | COc1ccc(-c2cccc(C(F)(F)F)c2)c(Oc2ccc3nnc(Cl)n3n2)c1 [Cpd.4-113, 3-chloro-6-{[4-methoxy-3′-(trifluoromethyl)biphenyl-2-yl]oxy}-[1,2,4]triazolo[4,3-b]pyridazine] | 100 to 1000 nM | 111.6 °C | –
16 | Fc1ccc(Oc2ccc3nnc(Cl)n3n2)c(-c2ccc(F)c(F)c2)c1 [Cpd.4-115, 3-chloro-6-(5,3′,4′-trifluorobiphenyl-2-yloxy)-[1,2,4]triazolo[4,3-b]pyridazine] | 100 to 1000 nM | 147.8 °C | –
17 | Fc1ccc(-c2cc(F)ccc2Oc2ccc3nnc(Cl)n3n2)cc1 [Cpd.4-116, 3-chloro-6-(5,4′-difluorobiphenyl-2-yloxy)-[1,2,4]triazolo[4,3-b]pyridazine] | 100 to 1000 nM | 141.1 °C | –

Other lines, results leading:

Row | EC50 (Rev-Erb alpha) | melting point | Emax (Rev-Erb alpha; relative to DMSO, at the tested dose, read-out: TOP activation) | Compound
18 | 100 to 1000 nM | 164.6 °C | – | COc1ccc(Oc2ccc3nnc(Cl)n3n2)c(-c2ccccc2)c1 [Cpd.4-14, 6-(5-methoxybiphenyl-2-yloxy)-3-chloro-[1,2,4]triazolo[4,3-b]pyridazine]
19 | 100 to 1000 nM | 148.4 °C | – | Fc1ccc(Oc2ccc3nnc(Cl)n3n2)c(-c2ccccc2)c1 [Cpd.4-15, 6-(5-fluoro-biphenyl-2-yloxy)-3-chloro-[1,2,4]triazolo[4,3-b]pyridazine]
20 | 100 to 1000 nM | 95.9 °C | – | Fc1ccccc1-c1ccccc1Oc1ccc2nnc(Cl)n2n1 [Cpd.4-17, 6-(2′-fluoro-biphenyl-2-yloxy)-3-chloro-[1,2,4]triazolo[4,3-b]pyridazine]
21 | 100 to 1000 nM | 129.3 °C | – | Fc1ccc(-c2ccccc2Oc2ccc3nnc(Cl)n3n2)cc1F [Cpd.4-20, 6-(3′,4′-difluoro-biphenyl-2-yloxy)-3-chloro-[1,2,4]triazolo[4,3-b]pyridazine]
22 | 100 to 1000 nM | 203.7 °C | – | Oc1cccc(-c2ccccc2Oc2ccc3nnc(Cl)n3n2)c1 [Cpd.4-21, 6-(3′-hydroxy-biphenyl-2-yloxy)-3-chloro-[1,2,4]triazolo[4,3-b]pyridazine]
23 | 100 to 1000 nM | 138.1 °C | – | COc1ccc(-c2ccccc2Oc2ccc3nnc(Cl)n3n2)cc1 [Cpd.4-22, 6-(4′-methoxy-biphenyl-2-yloxy)-3-chloro-[1,2,4]triazolo[4,3-b]pyridazine]
24 | 100 to 1000 nM | 166.9 to 173.4 °C | – | Cc1ccc(-c2ccccc2Oc2ccc3nnc(Cl)n3n2)cc1 [Cpd.4-23, 6-(4′-methyl-biphenyl-2-yloxy)-3-chloro-[1,2,4]triazolo[4,3-b]pyridazine]
25 | 100 to 1000 nM | 185.8 °C | – | FC(F)(F)c1ccc(-c2ccccc2Oc2ccc3nnc(Cl)n3n2)cc1 [Cpd.4-24, 6-(4′-trifluoromethyl-biphenyl-2-yloxy)-3-chloro-[1,2,4]triazolo[4,3-b]pyridazine]
26 | < 100 nM | 81.9 °C | – | Clc1ccccc1-c1ccccc1Oc1ccc2nnc(Cl)n2n1 [Cpd.4-25, 6-(2′-chloro-biphenyl-2-yloxy)-3-chloro-[1,2,4]triazolo[4,3-b]pyridazine]
27 | 100 to 1000 nM | 125.6 °C | – | Fc1cc(Oc2ccc3nnc(Cl)n3n2)c(-c2ccccc2)cc1F [Cpd.4-26, 6-(4,5-difluoro-biphenyl-2-yloxy)-3-chloro-[1,2,4]triazolo[4,3-b]pyridazine]
28 | < 100 nM | 144.5 °C | – | Cc1ccc(Oc2ccc3nnc(Cl)n3n2)c(-c2ccccc2)c1 [Cpd.4-27, 6-(5-methyl-biphenyl-2-yloxy)-3-chloro-[1,2,4]triazolo[4,3-b]pyridazine]
29 | 100 to 1000 nM | 123.4 °C | – | Fc1cccc(-c2ccc(F)cc2Oc2ccc3nnc(Cl)n3n2)c1 [Cpd.4-30, 6-(3′-fluoro-4-fluoro-biphenyl-2-yloxy)-3-chloro-[1,2,4]triazolo[4,3-b]pyridazine]
30 | 100 to 1000 nM | 129.7 °C | – | Fc1ccc(-c2ccc(F)cc2Oc2ccc3nnc(Cl)n3n2)cc1 [Cpd.4-31, 6-(4′-fluoro-4-fluoro-biphenyl-2-yloxy)-3-chloro-[1,2,4]triazolo[4,3-b]pyridazine]
31 | < 100 nM | 138.9 °C | – | FC(F)(F)c1ccc(-c2ccccc2)c(Oc2ccc3nnc(Cl)n3n2)c1 [Cpd.4-33, 6-(4-trifluoromethyl-biphenyl-2-yloxy)-3-chloro-[1,2,4]triazolo[4,3-b]pyridazine]
32 | 100 to 1000 nM | 171.7 °C | – | COc1ccc(-c2ccc(F)cc2)c(Oc2ccc3nnc(Cl)n3n2)c1 [Cpd.4-34, 6-(4′-fluoro-4-methoxy-biphenyl-2-yloxy)-3-chloro-[1,2,4]triazolo[4,3-b]pyridazine]
33 | < 100 nM | 157 to 158 °C | – | CNc1ccc(Oc2ccc3nnc(Cl)n3n2)c(-c2ccccc2)c1 [Cpd.4-47, 3-chloro-6-(5-methylamino-biphenyl-2-yloxy)-[1,2,4]triazolo[4,3-b]pyridazine]
34 | < 100 nM | 55 to 58 °C | – | CCN(CC)c1ccc(Oc2ccc3nnc(Cl)n3n2)c(-c2ccccc2)c1 [Cpd.4-55, 3-chloro-6-(5-diethylamino-biphenyl-2-yloxy)-[1,2,4]triazolo[4,3-b]pyridazine]
35 | < 100 nM | 62 to 67 °C | – | CC(C)CNc1ccc(Oc2ccc3nnc(Cl)n3n2)c(-c2ccccc2)c1 [Cpd.4-67, 3-chloro-6-(5-isobutylamino-biphenyl-2-yloxy)-[1,2,4]triazolo[4,3-b]pyridazine]
